Source: patent US20230295199A1, “PHOSPHOLIPID” (NIPPON FINE CHEMICAL CO., LTD., priority 2021, published 2023)

What was measured:
[1] = Particle size and polydispersity index of lipid particles (Zetasizer Nano ZS); assay type: physicochemical; conditions: siRNA lipid particles, lipid 1:DPPC:Chol 45:10:45, named phospholipid as lipid 1; diluted 50-fold with RNase-free water
Experimental: (§1) siRNA was added to 1 mM citrate buffer (pH 4.0), thereby preparing an acidic aqueous solution of siRNA (25° C., siRNA concentration: 71.4 nM). Separately, lipids (lipid 1: DOP-DEDA, DOP-PPZ, or DOR-MPPZ; lipid 2: dipalmitoyl phosphatidylcholine (DPPC); and lipid 3: cholesterol (Chol)) at a molar ratio of 45:10:45 (lipid 1:lipid 2:lipid 3) were added to ethanol, thereby preparing a phospholipid alcohol solution (25° C., lipid concentration: 2.5 mM). A 5-fold volume of the acidic aqueous solution of siRNA was added to the phospholipid alcohol solution (siRNA/lipid molar ratio=1/7000), and a microchannel (KeyChem-Basic, YMC Co., Ltd.) was used to obtain lipid particles. Finally, ethanol was removed by dialysis.
The lipid particles were diluted 50-fold with RNase-free water, and then the particle size and polydispersity index (PDI) were measured with a Zetasizer Nano ZS (Malvern). The lipid. particles were also diluted 50-fold with a buffer (pH=4.0, 5.0, 6.0, or 7.0), and the ζ-potential was then measured.

[2] = siRNA encapsulation efficiency of lipid particles (RiboGreen reagent); assay type: physicochemical; conditions: lipid 1:DPPC:Chol 45:10:45, siRNA/lipid molar ratio 1/7000, named phospholipid as lipid 1
Experimental: as §1
Further, the encapsulation efficiency of RNA was measured in the following manner. The measurement was performed using an RNA assay reagent (RiboGreen reagent, Thermo Fisher Scientific), specifically as described below. […] The plate was shaken for 5 minutes, and the fluorescence intensity in each well was measured. The encapsulation efficiency of siRNA in the lipid particles was calculated using the following equation: the encapsulation efficiency (%)=(the fluorescence intensity of total siRNA−the fluorescence intensity of free siRNA)/(the fluorescence intensity of total siRNA), with the measured fluorescence intensity.

Particle size (nm) [1]	Pdl [1]	siRNA encapsulation efficiency (%)* [2]	Molecule
100 ± 3 nm	0.11 ± 0.06	98 ± 7%	Dioleoylphosphate-Diethylenediamine Conjugate [DOP-DEDA, reference compound]
79 ± 3 nm	0.35 ± 0.01	94 ± 4%	CCCCCCCC/C=C\CCCCCCCC(=O)OC[C@H](COP(=O)(O)OCCN1CCNCC1)OC(=O)CCCCCCC/C=C\CCCCCCCC [DOP-PPZ, 1,2-di-(9Z-octadecenoyl)-sn-glycero-3-phosphoethylpiperazine]
